In series [1] the test system is MMP-1. In words: MMP-1 expression in SAECs treated with CSE. The series is classed as cell-based. Here is the method: FIG. 5. […] Data is presented as mean+standard error.
FIG. 8. […] SAEC treatment with 5% CSE, 10 nM Fluoxitine, 10 uM Fluoxitine, and combinations of 5% CSE and Fluoxitine. […] Data is presented as mean+standard error.
In the first experiment, SAE cells were treated with 5% CSE, 10 nM Fluoxitine, 10 uM Fluoxitine, and combinations of 5% CSE and Fluoxitine (FIG. 8). […] Data is presented as mean+standard error.

In series [2] the test system is MMP-1. The source says:
FIG. 6. The expression of MMP-1 protein in BAL from smoke rabbits. […] SM-smoke without the duloxetine, SMD-smoke with duloxetine.
(§1) Rabbits were stratified into one of four groups (Unexposed, treated with vehicle, Smoke exposed, treated with vehicle, Unexposed, treated with Duloxetine and smoke exposed treated with Duloxetine. Animals are maintained on room air or smoke exposed for 16 weeks and then sacrificed. Lung lavage is taken, lungs are fixed and sectioned and protein homogenate from lungs frozen.

The test system of the next series is emphysema. Here is the method:
FIG. 7A. […] Duloxetine was administered 3 mg/day given once a day.
FIG. 7B. Morphometric analysis of rabbit study groups. […] NS-non-smoke without the duloxetine, NS-D-non-smoke with duloxetine, SM-smoke without the duloxetine, SM-D-smoke with duloxetine.
as §1

The test system of another series is IRAK. In words: Western blot of IRAK phosphorylation in CSE treated SAE cells. The class given is cell-based.
A further series relates to PRAS40, BAD and GSK-3b. In words: Protein array analysis of cells treated with CSE. Conditions: CSE with Fluoxetine pretreatment vs CSE. The series is classed as cell-based. Here is the method:
FIG. 10. Protein Array Analysis of Cells Treated with CSE compared to Cells Treated with CSE combined with Fluoxetine. […] The lines representing these three transcription factors, along with ERK 1/2, are labeled. Additionally, the lines compressed at the bottom of the figure represent the following transcription factors that were also tested: PC, NC, Stat1, Stat2, Akt (Thr308), Akt (Ser473), AMPKa, S6 Ribosomal Protein, mTOR, HSP27, p70 S6 Kinase, p53, p38, SAPK/JNK, PARP and Caspase-3.

The next series has as its system TLR-4 receptor. In words: TLR4 expression in CSE treated SAE cells. The series is classed as cell-based. The conditions noted are these: SAEC, 5% CSE, 10 uM.
Series [3] in a line: Fluoxetine quantification in lung by chromatography after oral gavage or inhalation. The series is classed as in vivo. Conditions: mice; for Concentration in lung sample: peak at retention time 17.08, replicates and average. From the text:
FIG. 13A. […] Mice were sacrificed, lungs lyophilized and protein homogenate prepared for chromatographic analysis.
FIG. 14A. […] Mice were sacrificed, lungs lyophilized and protein homogenate prepared for chromatographic analysis.
Mice were sacrificed, lungs lyophilized and protein homogenate prepared for chromatographic analysis.

“And” between values parts separate entries of the source, which are not always exact repeats. Identical values can stand only once.

As for `CNCC[C@H](Oc1cccc2ccccc12)c1cccs1` [Duloxetine, (+)-(S)—N-Methyl-3-(naphthalen-1-yloxy)-3-(thiophen-2-yl) propan-1-amine], the MMP-1 expression result in the series with MMP-1 [1] (SAEC, 5% CSE, 10 uM Duloxetine, p<0.05) was “decreased MMP-1 expression”; in the series with MMP-1 [1] (cell culture system, 10 nM), “block the MMP-1 expression”. The “MMP-1 expression by ELISA of lung homogenate” value with MMP-1 [2] (rabbit cigarette smoke model, 20 weeks of smoke, compound in the last four weeks) was “block the MMP-1 expression”. Moreover, the “Expression of MMP-1 protein in BAL” value with MMP-1 [2] (smoke exposed rabbits) is recorded as “down regulated the expression of MMP-1 in BAL”. The “Mean linear intercept (morphometric analysis)” value with emphysema (SM vs NS, NS-D, SM-D groups, p=0.0495) is reported as “SM group had statistically significant increased mean linear intercept”. Further, the “Development of emphysema (H&E of lungs)” value in the series on emphysema (smoke exposed rabbits, 3 mg/day once a day) is “development of emphysema was blocked”.

In the case of `CNCCC(Oc1ccc(C(F)(F)F)cc1)c1ccccc1` (stereo not drawn) [Fluoxetine], the “MMP-1 induction by CSE” value in the series with MMP-1 [1] (SAEC, 5% CSE, 10 nM and 10 uM Fluoxetine, p<0.05) is listed as “MMP-1 induction was attenuated”. In addition, the “Phosphorylation of IRAK (Western blot)” value in the series on IRAK was “suppressed”. Further, in the series with PRAS40, BAD and GSK-3b, the “BAD (protein array)” value is given as “return to baseline”. For the same compound, the “GSK-3b (protein array)” value in the series with PRAS40, BAD and GSK-3b is on record as “return to baseline”. Moreover, the “PRAS40 (protein array)” value with PRAS40, BAD and GSK-3b is on record as “return to baseline”. Also, the TLR-4 receptor expression entry in the series on TLR-4 receptor is reported as “down regulation of TLR-4 receptor expression”. Besides, the “Concentration in lung sample” value in series [3] (inhalation 10 mg/kg) was 25.81 µM and 26.2 µM and 26.45 µM; in series [3] (inhalation 10 mg/kg, mean), 26.16 µM; in series [3] (oral gavage 10 mg/kg, 10 mg/kg), 3.712 µM and 3.673 µM and 3.98 µM; in series [3] (oral gavage 10 mg/kg, 10 mg/kg, mean), 3.788 µM. For the same compound, in series [3] (10 mg/kg), the “Levels of Fluoxetine within the lung, inhalation vs oral” value is listed as “Inhalation resulted in higher levels”. For the same compound, the “Detection of Fluoxetine in the lung” value in series [3] (10 mg/kg oral gavage and 10 mg/kg inhaled) is on record as “detection of Fluoxetine in the lung of mice”.

Source of the values: patent publication US20180028493A1, “INHIBITORS OF INDUCED MMP-1 PRODUCTION” (THE TRUSTEES OF COLUMBIA UNIVERSITY IN THE CITY OF NEW YORK, priority 2015, published 2018).
